# Experiments:
# [1] = system: Male Wistar rats; experiment: Rat carrageenan paw edema test; type: in vivo; settings: oral
# Description: Rat Carrageenan Paw Edema Test
# The carrageenan paw edema test was performed as described by Winter et al (Proc. Soc. Exp Biol Me., 111, 544, 1962). Male Wistar rats were selected and the body weight were equivalent within each group. The rats were fasted for eighteen hours with free access to water. The rats were dosed orally with the test compound suspended in vehicle containing 0.5% Methycellulose. The control rats were administered the vehicle alone. After one hour the rats were injected with 0.1 ml of 1% Carrageenan solution in 0.9% saline into the sub plantar surface of the right hind paw. Paw thickness was measured using vernier calipers at 0 time, after 2 and 3 hours. The average of foot swelling in drug treated animals was compared with that of control animals. Anti-inflammatory activity was expressed as the percentage inhibition of edema compared with control group [Arzneim-Forsch/Drug Res 43(I), 1, 44-50, 1993; Otterness and Bliven, Laboratory Models for Testing NSAIDs, In Non-Steroidal Anti-Inflammatory Drugs, (J. Lombardino, ed. 1985)]. The data of the selected compounds in this invention are summarized in Table I. In order to evaluate their role on the ulcer formation, the animals were sacrificed by cervical dislocation, the stomach removed and flushed with 1% formalin (10 ml). The stomach was opened along the greater curvature. […]
# [2] = system: IL-6; experiment: IL-6 production from LPS-stimulated human monocytes (ELISA); type: cell-based; settings: Monocyte; for inhibition at 1 µM: Conc. 1 μM
# Description: (§1) This assay determines the effect of test compounds on the production of IL-6 from human monocytes. Compounds are tested for their ability to downregulate the production of IL-6 in activated monocytes. Test compounds were incubated for three, six and twenty four hours with human monocytes. Lipopolysaccharide was used to stimulate the monocytes. The level of Interleukin-6 is quantitated using Enzyme-Linked Immunosorbent assay performed in a 96 well format.
# [3] = system: Male Wistar rats; experiment: Gastro-ulcerogenic potential (ulcer formation in the rats of the paw edema test); type: in vivo, rat; settings: oral dosing
# Description: The carrageenan paw edema test was performed as described by Winter et al (Proc. Soc. Exp Biol Me., 111, 544, 1962). Male Wistar rats were selected and the body weight were equivalent within each group. The rats were fasted for eighteen hours with free access to water. The rats were dosed orally with the test compound suspended in vehicle containing 0.5% Methycellulose. The control rats were administered the vehicle alone. After one hour the rats were injected with 0.1 ml of 1% Carrageenan solution in 0.9% saline into the sub plantar surface of the right hind paw. Paw thickness was measured using vernier calipers at 0 time, after 2 and 3 hours. The average of foot swelling in drug treated animals was compared with that of control animals. Anti-inflammatory activity was expressed as the percentage inhibition of edema compared with control group [Arzneim-Forsch/Drug Res 43(I), 1, 44-50, 1993; Otterness and Bliven, Laboratory Models for Testing NSAIDs, In Non-Steroidal Anti-Inflammatory Drugs, (J. Lombardino, ed. 1985)]. The data of the selected compounds in this invention are summarized in Table I. In order to evaluate their role on the ulcer formation, the animals were sacrificed by cervical dislocation, the stomach removed and flushed with 1% formalin (10 ml). The stomach was opened along the greater curvature. The haemorrhagic puncta and sulci were identified macroscopically.
# [4] = biological target: T1, COX-2 (Homo sapiens, UniProt P35354); experiment: Human whole blood assay, COX-2 inhibition (LPS-induced PGE2); type: cell-based; settings: 24 h
# T1 construct: Fresh blood was collected in tubes containing potassium EDTA by vein puncture from male volunteers; endogenous in cells; host or cells: fresh human whole blood from male volunteers, aspirin-pretreated, LPS-stimulated for 24 h
# T1 sequence (P35354 18-604): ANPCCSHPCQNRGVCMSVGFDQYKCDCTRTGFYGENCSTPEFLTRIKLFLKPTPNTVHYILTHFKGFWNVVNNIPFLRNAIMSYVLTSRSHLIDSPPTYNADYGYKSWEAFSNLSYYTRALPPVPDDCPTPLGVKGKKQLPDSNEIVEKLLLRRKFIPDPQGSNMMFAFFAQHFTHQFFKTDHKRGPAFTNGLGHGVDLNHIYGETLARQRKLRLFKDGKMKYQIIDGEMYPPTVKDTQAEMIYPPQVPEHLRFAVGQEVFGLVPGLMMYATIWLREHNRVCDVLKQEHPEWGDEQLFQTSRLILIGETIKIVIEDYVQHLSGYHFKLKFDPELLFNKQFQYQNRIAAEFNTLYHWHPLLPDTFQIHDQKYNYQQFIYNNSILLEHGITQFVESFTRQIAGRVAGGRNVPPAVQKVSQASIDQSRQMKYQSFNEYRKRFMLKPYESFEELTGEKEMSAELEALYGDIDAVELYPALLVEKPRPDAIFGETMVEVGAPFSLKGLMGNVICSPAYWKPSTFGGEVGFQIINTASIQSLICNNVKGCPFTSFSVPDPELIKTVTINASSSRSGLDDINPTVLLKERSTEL
# Description: In vitro Evaluation of Cycloxygenase-2 (COX-2) Inhibition Activity
# The COX-2 inhibition activity of the compounds illustrated in the examples was determined by the following method.
# Human whole blood provides a protein and cell rich milieu appropriate for the study of biochemical efficacy of anti-inflammatory compounds such as selective COX-2 inhibitors. […] This is correlating with the observation that COX-2 inhibitors have no effect on prostaglandin E2 (PGE2) production in normal blood. These inhibitors are active only after incubation of human blood with lipopolysaccharide (LPS), which induces COX-2 production in the blood.
# Fresh blood was collected in tubes containing potassium EDTA by vein puncture from male volunteers. The subjects should have no apparent inflammatory conditions and not taken NSAIDs for atleast 7 days prior to blood collection. Blood was treated with aspirin in vitro (10 μg/ml, at time zero) to inactivate COX-1, and then with LPS (10 μg/ml) along with test agents or vehicle. The blood was incubated for 24 h at 37° C., after which the tubes were centrifuged, the plasma was separated and stored at −80° C. (J Pharmacol Exp Ther 271, 1705, 1994; Proc Natl Acad Sci USA 96, 7563, 1999). The plasma was assayed for PGE2 using Cayman ELISA kit as per the procedure outlined by the manufacturer (Cayman Chemicals, Ann Arbor, USA). […]
# [5] = system: TNF-α; experiment: TNF-α production from LPS-stimulated human monocytes (ELISA); type: cell-based; settings: Monocyte; for inhibition at 10 µM: Conc. 10 μM
# Description: Tumor Necrosis Factor Alpha (TNF-α)
# as §1, with “TNF-α” for “IL-6”, “were” for “are”, “TNF-α was” for “Interleukin-6 is”
Compound,melting point,inhibition at 1 µM [2],also measured
"Nc1cc(=O)nc(Nc2ccccc2)n1-c1ccccc1 [Example 1, 6-amino-2-phenylamino-1-phenyl-1H-pyrimidin-4-one]",202 to 206 °C,–,Rat Paw Edema model % Inhibition (10 mg/kg body weight) [1]: 10%; inhibition at 0.25 µM ([2]; Conc. 0.25 μM): 46.6%; Gastro-ulcerogenic potential (% incidence of ulceration) [3]: 24.6%; inhibition at 10 µM ([4]; Conc. 10 μM): 75.8%
"CSc1ccc(Nc2nc(=O)cc(N)n2-c2ccc(C)cc2)cc1 [Example 8, 6-amino-1-(4-methylphenyl)-2-(4-methylthio-phenylamino)-1H-pyrimidin-4-one]",231 to 234 °C,–,–
"CCOc1ccc(-n2c(N)cc(=O)nc2Nc2ccccc2)cc1 [Example 10, 6-amino-1-(4-ethoxyphenyl)-2-phenylamino-1H-pyrimidin-4-one]",114 to 118 °C,–,inhibition at 1 µM ([4]; Conc. 1 μM): 33.3%
"Nc1cc(=O)nc(Nc2ccccc2)n1-c1ccc(Cl)cc1 [Example 11, 6-amino-1-(4-chlorophenyl)-2-phenylamino-1H-pyrimidin-4-one]",216 to 222 °C,59.5%,–
"Nc1cc(=O)nc(Nc2ccccc2)n1-c1ccc(Br)cc1 [Example 12, 6-amino-1-(4-bromophenyl)-2-phenylamino-1H-pyrimidin-4-one]",211 to 213 °C,–,–

# Second part, led by results:
melting point,Compound,inhibition at 1 µM [2],also measured
213 to 216 °C,"COc1ccc(Nc2nc(=O)cc(N)n2-c2ccccc2)cc1 [Example 2, 6-amino-2-(4-methoxy-phenylamino)-1-phenyl-1H-pyrimidin-4-one]",65.1%,–
111 to 113 °C,"CCOc1ccc(Nc2nc(=O)cc(N)n2-c2ccccc2)cc1 [Example 3, 6-amino-2-(4-ethoxy-phenylamino)-1-phenyl-1H-pyrimidin-4-one]",82.3%,inhibition at 1 µM ([5]; Conc. 1 μM): 58.3%
133 to 135 °C,"CSc1ccc(Nc2nc(=O)cc(N)n2-c2ccccc2)cc1 [Example 4, 6-amino-2-(4-methylthio-phenylamino)-1-phenyl-1H-pyrimidin-4-one]",56.7%,inhibition at 10 µM [5]: 43.5%
207 to 210 °C,"Cc1ccc(Nc2nc(=O)cc(N)n2-c2ccccc2)cc1 [Example 5, 6-amino-2-(4methyl-phenylamino)-1-phenyl-1H-pyrimidin-4-one]",–,–
233 to 237 °C,"Nc1cc(=O)nc(Nc2ccc(Cl)cc2)n1-c1ccccc1 [Example 6, 6-amino-2-(4-chloro-phenylamino)-1-phenyl-1H-pyrimidin-4-one]",44.6%,–
225 to 227 °C,"Nc1cc(=O)nc(Nc2ccc(F)cc2)n1-c1ccccc1 [Example 7, 6-amino-2-(4-fluoro-phenylamino)-1-phenyl-1H-pyrimidin-4-one]",–,–
180 to 190 °C,"COc1ccc(-n2c(N)cc(=O)nc2Nc2ccccc2)cc1 [Example 9, 6-amino-1-(4-methoxyphenyl)-2-phenylamino-1H-pyrimidin-4-one]",75.4%,inhibition at 10 µM [5]: 45.2%

# Source: patent US20030232813A1, “Novel amino substituted pyrimidinone derivatives” (ORCHID CHEMICALS & PHARMACEUTICALS LIMITED, priority 2002, published 2003)
